From patent US11092549B2, “Fluorescent probes for drug permeability in gram negative bacteria” (Saint Louis University, priority 2018, dated 2021)
Values after ≈ are worked out from the molar mass of the structure shown.

Legend:
[1] = system: E. coli strains BW25113, ΔEfflux, WT-Pore and ΔEfflux-Pore; experiment: Fluorescence-based intracellular uptake of compounds in efflux-proficient, efflux-deficient and hyperporinated cells (FIG. 3); settings: when the cell envelope is compromised, excitation 335 nm
Procedure: For Hoechst or compound uptake experiments, overnight grown cells will be re-inoculated into 30 ml LB broth and grown until OD600 of 1. The cells will then pelleted by centrifugation for 15 min at room temperature and washed once in HMG buffer. The pellet will be resuspended in HMG buffer to OD600 of 2.0 and kept at room temperature during the course of the experiment. For the efflux inhibition or uptake kinetics, 100 μl of Hoechst or compound solution in HMG buffer with and without increasing concentrations of inhibitors at twice the concentrations indicated will be added into a black F-bottom non-binding 96-well plate. Fluorescence of Hoechst or compounds will be followed at λex=355 nm and λem=450 nm. To this, 100 μl of cells at OD600 of 2.0 was injected, shaken for 6 sec and the fluorescence of Hoechst will be monitored continuously for up to 10 min.
The inventors will use a fluorescence-based assay in which a fluorescent probe, a substrate of efflux pumps, reports EPI activities. Exponentially grown cells will be transferred into a defined medium, dispensed into 96-well plates with increasing concentrations of EPIs, and incubated for a pre-determined time. The probe will be added to cells and fluorescence recorded at different time points. Compounds with efflux inhibiting activities will increase the uptake of the probe and as a result increase the probe fluorescence (FIG. 3) (Abdali et al., 2017). The reverse kinetic curves, in which the concentration of the compound is fixed while the probe concentration varies, will be also collected. Detailed quantification of the kinetic data will be performed using two probes: a DNA dye Hoechst 33342 (HT) (Eicher et al., 2012; Nakashima et al., 2011 and Richmond et al., 2013) and a novel SLU-417 probe that were synthesized during a focused synthetic effort (Haynes et al., 2017). HT is a topoisomerase inhibitor with the MIC 2 μM in Δ6-Pore cells. In contrast, SLU-417 is relatively inert with MIC≥50 μM, which should reduce possible non-specific effect during drug uptake measurements.
Experiments were carried out in four E. coli strains, BW25113, a wild type strain with efflux pumps, ΔEfflux, a cell line in which the efflux pumps have been inactivated by removal of tolC gene and their hyperporinated variants WT-Pore and ΔEfflux-Pore. Four compounds were tested in these cell lines which show increased fluorescence intensity in cells in which the efflux pumps have been removed (FIG. 3).

[2] = system: E. coli BW25113 and P. aeruginosa PAO1; experiment: Screen of NCI Diversity sets for antibacterial and EPI activities, with profiling of actives; assay type: cell-based
Source text: The inventors screened NCI Diversity sets in E. coli BW25113 and P. aeruginosa PAO1 for antibacterial and EPI activities. From ˜2,000 compounds tested, the inventors identified 34 active compounds (Abdali et al., 2017). […] Synthetic procedures for modifying NSC 60339 has been described before (Abdali et al., 2017 and Gamage et al., 2013). Because clinically-important antibiotics are extensively optimized, the inventors have chosen to focus on fluoroquinolones, tetracyclines, oxazolidinones, phenicols and macrolides/ketolides representatives that are known to penetrate through both the LPS-phospholipid bilayer and porins of the OM and include both broad and narrow spectrum antibiotics.

Δ6-Pore cells = experiment: Minimal inhibitory concentration (MIC) of fluorescent probes; assay type: cell-based, P. aeruginosa
Source text: For assessing antibacterial activities, compounds will be analyzed against four strains of P. aeruginosa: WT and ΔEfflux (lacking mexAB-OprM, mexCD-OprJ, mexXY), and their hyperporinated variants WT-Pore and ΔEfflux-Pore (FIGS. 2A-C) (Krishnamoorthy et al., 2016 and Krishnamoorthy et al., 2017). Based on minimal inhibitory concentrations (MIC) and growth IC50, compounds will be grouped as affected by efflux or by OM barriers. […] The inventors expect that at least 50% of the compounds in the library will have antibacterial activities in the hyperporinated efflux-deficient ΔEfflux-Pore. The -fold changes in MICs in the four strains will be used to guide selection of the compounds for detailed studies.
The inventors will use a fluorescence-based assay in which a fluorescent probe, a substrate of efflux pumps, reports EPI activities. Exponentially grown cells will be transferred into a defined medium, dispensed into 96-well plates with increasing concentrations of EPIs, and incubated for a pre-determined time. The probe will be added to cells and fluorescence recorded at different time points. Compounds with efflux inhibiting activities will increase the uptake of the probe and as a result increase the probe fluorescence (FIG. 3) (Abdali et al., 2017). […]

Compound | intracellular uptake [1] | also measured
O=C(Nc1ccc(C2=NCCN2)cc1)c1ccc(-c2cc(Cl)cc(Cl)c2)s1 [SLU-446] | increases | 
O=C(Nc1ccc(C2=NCCN2)cc1)c1ccc(C(=O)Nc2ccc(C3=NCCN3)cc2)c(Cl)c1 [NSC 60339] |  | antibacterial and anti-MFP (Membrane Fusion Protein) activities [2]: have both antibacterial and anti-MFP; substrate of efflux pumps [2]: modest substrate of efflux pumps
O=C(Nc1ccc(C2=NCCN2)cc1)c1cc2cc(Cl)ccc2o1 [SLU-843] | increases | 
CC(C)c1ccc(/C=C/C(=O)Nc2ccc(C3=NCCN3)cc2)cc1 [SLU-417] | increases | MIC (Δ6-Pore cells; Pseudomonas aeruginosa): ≥ 50 µM
COc1ccc(/C=C/C(=O)Nc2ccc(C3=NCCN3)cc2)cc1 [SLU-448] | increases | 
CCOc1ccc(-c2nc3ccc(-c4nc5ccc(N6CCN(C)CC6)cc5[nH]4)cc3[nH]2)cc1 [HT, Hoechst 33342, reference compound] |  | MIC (Δ6-Pore cells; Δ6-Pore cells): 2 µM (≈ 0.905 µg/mL)
